A word on the IC50: it is the concentration that inhibits the measured activity by half. In general, inhibition refers to the relative decrease from the control value, in per cent.

Assay [1] deals with SARS-CoV-2. Nature of the assay: Antiviral activity against SARS-CoV-2 variant Omicron BA.5 infected in African green monkey Vero E6 cells assessed as reduction in virus titers of progeny virus in supernatant measured after 72 hrs by CPE assay. In kind it is functional, organism-based. The note with it: Severe acute respiratory syndrome coronavirus 2, Omicron BA.5, Vero C1008, 72 h.

The subject of assay [2] is SARS-CoV-2. Nature of the assay: Antiviral activity against SARS-CoV-2 variant Omicron BA.2 infected in African green monkey Vero E6 cells assessed as reduction in virus-induced cytopathic effect at 75 uM preincubated with virus for 1 hr followed by infection with cells and measured after 72 hrs by microscopic analysis. The note with it: Severe acute respiratory syndrome coronavirus 2, time 73.0 hrs. In kind it is functional, organism-based. (Cytopathic effects are the visible damage that an infection or toxin causes in cultured cells.)

The test system of assay [3] is SARS-CoV-2. As to the kind of experiment: Antiviral activity against SARS-CoV-2 variant Omicron BA.3 infected in African green monkey Vero E6 cells assessed as reduction in virus titers of progeny virus in supernatant measured after 72 hrs by CPE assay. The assay is classed as functional, organism-based. The following applies: Severe acute respiratory syndrome coronavirus 2, Omicron BA.3, Vero C1008, 72 h.

Assay [4] deals with SARS-CoV-2. As to the kind of experiment: Antiviral activity against SARS-CoV-2 variant Omicron BA.1 infected in African green monkey Vero E6 cells assessed as reduction in virus titers of progeny virus in supernatant measured after 72 hrs by CPE assay. In kind it is functional, organism-based. The following applies: Severe acute respiratory syndrome coronavirus 2, Omicron BA.1, Vero C1008, 72 h.

For assay [5], the system named is SARS-CoV-2. As to the kind of experiment: Antiviral activity against SARS-CoV-2 variant Omicron BA.4 infected African green monkey Vero E6 cells assessed as reduction in virus-induced cytopathic effect at 75 uM preincubated with virus for 1 hr followed by infection with cells and measured after 72 hrs by microscopic analysis. The assay is classed as functional, organism-based. The following applies: Severe acute respiratory syndrome coronavirus 2, time 73.0 hrs.

In assay [6] the test system is SARS-CoV-2. Nature of the assay: Antiviral activity against SARS-CoV-2 variant Omicron BA.3 infected in African green monkey Vero E6 cells assessed as reduction in viral replication at 75 uM measured at 72 hrs post-infection by qRT-PCR analysis. The assay is classed as functional, organism-based. The following applies: Severe acute respiratory syndrome coronavirus 2.

Assay [7] concerns SARS-CoV-2. As to the kind of experiment: Antiviral activity against SARS-CoV-2 variant Omicron BA.2 infected in African green monkey Vero E6 cells assessed as inhibition of virus titers of progeny virus in supernatant at 75 uM measured after 72 hrs by CPE assay relative to control. The note with it: Severe acute respiratory syndrome coronavirus 2, Omicron BA.2, Vero C1008. In kind it is functional.

Assay [8] deals with SARS-CoV-2. Nature of the assay: Antiviral activity against SARS-CoV-2 variant Delta infected in African green monkey Vero E6 cells assessed as reduction in virus-induced cytopathic effect at 75 uM preincubated with virus for 1 hr followed by infection with cells and measured after 72 hrs by microscopic analysis. The note with it: Severe acute respiratory syndrome coronavirus 2, time 73.0 hrs. The assay is classed as functional, organism-based.

Assay [9] has as its system SARS-CoV-2. As to the kind of experiment: Antiviral activity against SARS-CoV-2 variant Omicron BA.3 infected African green monkey Vero E6 cells assessed as reduction in virus-induced cytopathic effect at 75 uM preincubated with virus for 1 hr followed by infection with cells and measured after 72 hrs by microscopic analysis. The assay is classed as functional, organism-based. The following applies: Severe acute respiratory syndrome coronavirus 2, time 73.0 hrs.

In assay [10] the test system is SARS-CoV-2. Nature of the assay: Antiviral activity against SARS-CoV-2 variant Delta infected in African green monkey Vero E6 cells assessed as reduction in viral replication at 75 uM measured at 72 hrs post-infection by qRT-PCR analysis. In kind it is functional, organism-based. The note with it: Severe acute respiratory syndrome coronavirus 2. On the technique in general: In qPCR the cycle at which signal appears reflects the starting amount.

Assay [11] has as its system SARS-CoV-2. As to the kind of experiment: Antiviral activity against SARS-CoV-2 variant Omicron BA.3 infected in African green monkey Vero E6 cells assessed as inhibition of virus titers of progeny virus in supernatant at 75 uM measured after 72 hrs by CPE assay relative to control. In kind it is functional. The following applies: Severe acute respiratory syndrome coronavirus 2, Omicron BA.3, Vero C1008.

The subject of assay [12] is SARS-CoV-2. Nature of the assay: Antiviral activity against SARS-CoV-2 variant Omicron BA.5 infected in African green monkey Vero E6 cells assessed as inhibition of virus titers of progeny virus in supernatant at 75 uM measured after 72 hrs by CPE assay relative to control. The note with it: Severe acute respiratory syndrome coronavirus 2, Omicron BA.5, Vero C1008. In kind it is functional.

Assay [13] has as its system SARS-CoV-2. Nature of the assay: Antiviral activity against SARS-CoV-2 variant Omicron BA.1 infected in African green monkey Vero E6 cells assessed as reduction in viral replication at 75 uM measured at 72 hrs post-infection by qRT-PCR analysis. The assay is classed as functional, organism-based. The following applies: Severe acute respiratory syndrome coronavirus 2.

The test system of assay [14] is SARS-CoV-2. Nature of the assay: Antiviral activity against SARS-CoV-2 variant Delta infected in African green monkey Vero E6 cells assessed as inhibition of virus titers of progeny virus in supernatant at 75 uM measured after 72 hrs by CPE assay relative to control. The assay is classed as functional. The following applies: Severe acute respiratory syndrome coronavirus 2, Delta, Vero C1008.

The subject of assay [15] is SARS-CoV-2. Nature of the assay: Antiviral activity against SARS-CoV-2 variant Omicron BA.4 infected in African green monkey Vero E6 cells assessed as inhibition of virus titers of progeny virus in supernatant at 75 uM measured after 72 hrs by CPE assay relative to control. In kind it is functional. The note with it: Severe acute respiratory syndrome coronavirus 2, Omicron BA.4, Vero C1008.

The subject of assay [16] is SARS-CoV-2. Nature of the assay: Antiviral activity against SARS-CoV-2 variant Omicron BA.1 infected in African green monkey Vero E6 cells assessed as reduction in virus-induced cytopathic effect at 75 uM preincubated with virus for 1 hr followed by infection with cells and measured after 72 hrs by microscopic analysis. In kind it is functional, organism-based. The note with it: Severe acute respiratory syndrome coronavirus 2, time 73.0 hrs.

Assay [17] concerns SARS-CoV-2. Nature of the assay: Antiviral activity against SARS-CoV-2 variant Omicron BA.4 infected in African green monkey Vero E6 cells assessed as reduction in virus titers of progeny virus in supernatant measured after 72 hrs by CPE assay. The following applies: Severe acute respiratory syndrome coronavirus 2, Omicron BA.4, Vero C1008, 72 h. In kind it is functional, organism-based.

For assay [18], the system named is SARS-CoV-2. Nature of the assay: Antiviral activity against SARS-CoV-2 variant Omicron BA.5 infected in African green monkey Vero E6 cells assessed as reduction in viral replication at 75 uM measured at 72 hrs post-infection by qRT-PCR analysis. The assay is classed as functional, organism-based. The note with it: Severe acute respiratory syndrome coronavirus 2.

Assay [19] has as its system SARS-CoV-2. As to the kind of experiment: Antiviral activity against SARS-CoV-2 variant Omicron BA.2 infected in African green monkey Vero E6 cells assessed as reduction in viral replication at 75 uM measured at 72 hrs post-infection by qRT-PCR analysis. In kind it is functional, organism-based. The note with it: Severe acute respiratory syndrome coronavirus 2.
Assay [20] concerns SARS-CoV-2. As to the kind of experiment: Antiviral activity against SARS-CoV-2 variant Omicron BA.4 infected in African green monkey Vero E6 cells assessed as reduction in viral replication at 75 uM measured at 72 hrs post-infection by qRT-PCR analysis. The following applies: Severe acute respiratory syndrome coronavirus 2. In kind it is functional, organism-based.
The test system of assay [21] is SARS-CoV-2. Nature of the assay: Antiviral activity against SARS-CoV-2 variant Omicron BA.2 infected in African green monkey Vero E6 cells assessed as reduction in virus titers of progeny virus in supernatant measured after 72 hrs by CPE assay. In kind it is functional, organism-based. The following applies: Severe acute respiratory syndrome coronavirus 2, Omicron BA.2, Vero C1008, 72 h.

Assay [22] has as its system SARS-CoV-2. As to the kind of experiment: Antiviral activity against SARS-CoV-2 variant Omicron BA.1 infected in African green monkey Vero E6 cells assessed as inhibition of virus titers of progeny virus in supernatant at 75 uM measured after 72 hrs by CPE assay relative to control. The note with it: Severe acute respiratory syndrome coronavirus 2, Omicron BA.1, Vero C1008. In kind it is functional.

Assay [23] concerns SARS-CoV-2. As to the kind of experiment: Antiviral activity against SARS-CoV-2 variant Omicron BA.5 infected African green monkey Vero E6 cells assessed as reduction in virus-induced cytopathic effect at 75 uM preincubated with virus for 1 hr followed by infection with cells and measured after 72 hrs by microscopic analysis. In kind it is functional, organism-based. The note with it: Severe acute respiratory syndrome coronavirus 2, time 73.0 hrs.

Assay [24] relates to SARS-CoV-2. Nature of the assay: Antiviral activity against SARS-CoV-2 variant Delta infected in African green monkey Vero E6 cells assessed as reduction in virus titers of progeny virus in supernatant measured after 72 hrs by CPE assay. The assay is classed as functional, organism-based. The following applies: Severe acute respiratory syndrome coronavirus 2, Delta, Vero C1008, 72 h.

Active and inactive are the calls of the source. No cut-off for these calls is given here. Some results are limits rather than exact numbers.

Take `C=C(C)[C@@H]1CCC(C)=C[C@H]1c1c(O)cc(CCCCC)c(C(=O)O)c1O` [CANNABIDIOLIC ACID]: the IC50 was determined as 47.5 µM in [1]; 31.7 µM in assay [3]; 45.4 µM in assay [4]; 47.7 µM in assay [17]; 35.1 µM in assay [21]; 30.7 µM in [24]. Also, the result in assay [2], in assay [5], in assay [6], in assay [8], in assay [9] and in assay [10] was Active. Besides, the outcome in assay [13], in assay [16], in assay [18], in [19], in assay [20] and in [23] was Active. The inhibition at 75 µM in assay [7], in [11], in assay [12], in assay [14], in assay [15] and in assay [22] was above 90% in each case.

These data come from ChEMBL document CHEMBL5321262, “Antiviral Activity of Cannabidiolic Acid and Its Methyl Ester against SARS-CoV-2” (J Nat Prod, 2023).
